The source of these data is ChEMBL document CHEMBL3774370, “Structure-activity relationships (SAR) and structure-kinetic relationships (SKR) of sulphone-based CRTh2 antagonists” (Eur J Med Chem, 2016).

The test system of experiment [1] is Prostaglandin D2 receptor 2, CRTh2 (Homo sapiens). The experiment is described as follows: Antagonist activity at CRTH2 receptor (unknown origin) expressed in CHOK1 cells assessed as dissociation half life measured up to 25 hrs by GTPgammaS assay. The conditions noted are these: CHO-K1.
The target in experiment [2] is T1, Prostaglandin D2 receptor 2 (Homo sapiens, UniProt Q9Y5Y4).
T1 sequence (Q9Y5Y4 whole entry): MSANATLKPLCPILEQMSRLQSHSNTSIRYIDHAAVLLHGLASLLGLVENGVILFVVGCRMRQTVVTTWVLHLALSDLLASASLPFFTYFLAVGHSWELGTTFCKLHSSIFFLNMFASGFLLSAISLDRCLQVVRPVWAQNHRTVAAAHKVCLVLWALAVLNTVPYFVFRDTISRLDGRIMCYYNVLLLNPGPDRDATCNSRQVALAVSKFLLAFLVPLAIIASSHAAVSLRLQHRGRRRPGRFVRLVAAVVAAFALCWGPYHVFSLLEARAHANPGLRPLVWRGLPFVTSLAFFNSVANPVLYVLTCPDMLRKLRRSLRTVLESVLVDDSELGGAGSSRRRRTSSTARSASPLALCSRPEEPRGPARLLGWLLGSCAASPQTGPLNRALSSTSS
The experiment can be described thus: Displacement of [35S]-GTPgammaS from CRTH2 receptor (unknown origin) expressed in CHOK1 cell membrane after 1 hr by liquid scintillation counter. The class given is cell membranes, CHO-K1.

Experiment [3] has as its target T2, Prostaglandin D2 receptor 2 (Homo sapiens) (UniProt Q9Y5Y4).
T2 sequence (whole entry): T1 sequence (Q9Y5Y4 whole entry)
The experiment is described as follows: Displacement of [35S]-GTPgammaS from CRTH2 receptor (unknown origin) expressed in CHOK1 cell membrane at 10 uM after 1 hr by liquid scintillation counter. The experiment is classed as cell membranes. To be noted: CHO-K1. A general note: Loss of bound radioactivity is the signal in a displacement assay; it reports binding, not function.

pIC50: −log10 of the molar value. A value given as a limit tells only on which side of the number the result lay.

One may read the pIC50 as the negative decadic logarithm of the IC50, by convention in mol/L. Read a high pIC50 as a small IC50. As to `Cc1c(Cc2ccccc2S(=O)(=O)c2ccc(F)cc2)c2c(n1CC(=O)O)CCCC2=O`, the T1/2 in experiment [1] worked out at 21 h. For the same compound, the negative-log IC50 (pIC50) in experiment [2] was 8.70.

In turn, `O=C(O)CN1c2cccnc2N(Cc2ccccc2S(=O)(=O)c2ccccc2)S1(=O)=O` gave a negative logarithm of the IC50 (pIC50) in experiment [2] of 5.80.

In general, inhibition refers to the relative decrease from the control value, in per cent. A lower inhibition goes with a weak effect. `O=C(O)Cn1nc(-c2ccccc2)n(Cc2ccccc2S(=O)(=O)c2ccccc2)c1=O` came in with an inhibition in experiment [3] of less than 25%.

Turning to `O=C(O)Cn1nc(-c2ccccc2)cc(Cc2ccccc2S(=O)(=O)c2ccccc2)c1=O`, the inhibition in experiment [3] was less than 25%.

In the case of `COc1ccc(S(=O)(=O)c2ccc(F)cc2)c(Cc2c3c(n(CC(=O)O)c2C)CCCC3=O)c1`, the T1/2 in experiment [1] turned out to be 21 h. The same compound showed a pIC50 in experiment [2] of 8.70.

Regarding `Cc1c(Cc2ccccc2S(=O)(=O)c2ccc(F)cc2)c2c(n1CC(=O)O)CCCC2`, in experiment [2], the pIC50 is 6.98.

Consider `O=C(O)Cc1nc(Cc2ccccc2S(=O)(=O)c2ccccc2)n2ccccc12`, for which the pIC50 in experiment [2] was 5.52.

`COc1ccc(S(=O)(=O)c2ccc(F)cc2)c(Cn2cc(CC(=O)O)c3ccc(C)nc32)c1` had a pIC50 in experiment [2] of 7.74.

Take `O=C(O)Cn1nc(Cc2ccccc2S(=O)(=O)c2ccccc2)c2ccccc2c1=O`: the inhibition in experiment [3] is less than 25%.

`COc1ccc(S(=O)(=O)c2ccc(F)cc2)c(Cc2c(C)c(CC(=O)O)c3ccncn23)c1` showed a negative-log IC50 (pIC50) in experiment [2] of 8.30.

Regarding `Cc1c(CC(=O)O)c(-c2ccccc2)nn1Cc1ccccc1S(=O)(=O)c1ccccc1`, in experiment [1], the T1/2 is 0.1 h.

`O=C(O)Cc1cc(Cc2ccccc2S(=O)(=O)c2ccccc2)c2nc(C(F)(F)F)ccn12`: in experiment [1], the T1/2 is 0.05 h. The compound further gave a negative logarithm of the IC50 (pIC50) in experiment [2] of 7.33.

On to `Cc1c(CC(=O)O)c2ccncn2c1Cc1ccccc1S(=O)(=O)c1ccccc1`, for which, in experiment [2], the negative logarithm of the IC50 (pIC50) was 7.55.

For the compound `Cc1c(Cc2ccccc2S(=O)(=O)c2ccc(F)cc2)nc(-c2ccccc2)n1CC(=O)O`, the T1/2 in experiment [1] worked out at 0.6 h. In addition, in experiment [2], the pIC50 is 8.10.

Consider `COc1ccc(S(=O)(=O)c2ccc(F)cc2)c(Cn2c(C)c(CC(=O)O)c3ccc(C)nc32)c1`, for which, in experiment [1], the T1/2 was 13 h. In addition, the negative logarithm of the IC50 (pIC50) in experiment [2] is 8.40.

In experiment [2], `O=C(O)Cn1c(-c2ccccc2)nn(Cc2ccccc2S(=O)(=O)c2ccccc2)c1=O` showed a pIC50 of 5.62.

`Cc1c(Cc2ccccc2S(=O)(=O)c2ccccc2)c(-c2ccccc2)nn1CC(=O)O`: in experiment [2], the pIC50 was 7.07.

Consider `Cc1c(Cc2ccccc2S(=O)(=O)c2ccccc2)c(=O)n(-c2ccccc2)n1CC(=O)O`, for which the negative-log IC50 (pIC50) in experiment [2] was 6.01.

In the case of `Cc1c(-c2ccccc2)n(CC(=O)O)c(=O)n1Cc1ccccc1S(=O)(=O)c1ccc(F)cc1`, the pIC50 in experiment [2] was 5.00.

In the case of `O=C(O)Cc1nn(Cc2ccccc2S(=O)(=O)c2ccccc2)c(=O)c2ccccc12`, the T1/2 in experiment [1] came to 0.04 h. Besides, the pIC50 in experiment [2] is 7.19.

Take `O=C(O)Cc1ccc(=O)n(Cc2ccccc2S(=O)(=O)c2ccccc2)c1`: the negative logarithm of the IC50 (pIC50) in experiment [2] is 5.00.

For `O=C(O)Cc1cccn(Cc2ccccc2S(=O)(=O)c2ccccc2)c1=O`, the inhibition in experiment [3] is less than 25%.

In the case of `Cc1c(Cc2ccccc2S(=O)(=O)c2ccccc2)c2cc(F)ccc2n1CC(=O)O`, the T1/2 in experiment [1] is 1.3 h. This compound had a pIC50 in experiment [2] of 7.85.

Regarding `Cc1ccc2c(CC(=O)O)c(C)n(Cc3ccccc3S(=O)(=O)c3ccccc3)c2n1`, in experiment [1], the T1/2 is 1.3 h. The compound further gave a pIC50 in experiment [2] of 7.85.

Regarding `O=C(O)Cc1cc(Cl)c(=O)n(Cc2ccccc2S(=O)(=O)c2ccccc2)c1`, the negative logarithm of the IC50 (pIC50) in experiment [2] was 6.07.
